Tested on: normal ernährte Kaninchen
Experiment: Blood sugar lowering in normally fed rabbits after oral administration (autoanalyzer)
Format: in vivo
Protocol: Die blutzuckersenkende Wirkung der beschriebenen Benzolsulfonylsemicarbazide kann dadurch festgestellt werden, daß man sie als freie Verbindung oder in Form der Natriumsalze an normal ernährte Kaninchen verfüttert und den Blutzuckerwert nach der bekannten Methode von Hagedorn-Jensen oder mit einem Autoanalyzer über eine längere Zeitdauer ermittelt.
Die routinemäßige Bestimmung der blutzuckersenkenden Wirkung kann mit Dosierungen von z.B. 10,2 oder 0,4 mg Wirksubstanz pro kg Versuchstier nach bekannten Methoden erfolgen.
4-(4-<2-(1-Oxo-isoindolin-2-carboxamido)-äthyl> -benzolsulfonyl)-1,1-hexamethylen-semicarbazid wurde in einer Dosierung von 0,4 mg/kg Kaninchen verabreicht und die Blutzuckerwerte wurden mit einem Autoanalyzer über eine längere Zeitdauer ermittelt. Die hierbei gemessene Blutzuckersenkung ist in der nachfolgenden Tabelle in % nach.... Stunden angegeben. In der Tabelle ist ferner die Blutzuckersenkung in % angegeben, die nach p.o. Verabreichung von 0,08 mg/kg Kaninchen beobachtet wurde.

## O=C(NN1CCCCCC1)NS(=O)(=O)c1ccc(CCNC(=O)N2Cc3ccccc3C2=O)cc1 [4-(4-<2-(1-Oxo-isoindolin-2-carboxamido)-äthyl> -benzolsulfonyl)-1,1-hexamethylen-semicarbazid]
0,4 mg/kg p.o., after 1 hour
  Blutzuckersenkung an Kaninchen in %: 26%
0,4 mg/kg p.o., after 3 hours
  Blutzuckersenkung an Kaninchen in %: 31%
0,4 mg/kg p.o., after 5 hours
  Blutzuckersenkung an Kaninchen in %: 43%
0,4 mg/kg p.o., after 24 hours
  Blutzuckersenkung an Kaninchen in %: 37%
0,4 mg/kg p.o., after 48 hours
  Blutzuckersenkung an Kaninchen in %: 0%
0,08 mg/kg p.o., after 1 hour
  Blutzuckersenkung an Kaninchen in %: 11%
0,08 mg/kg p.o., after 3 hours
  Blutzuckersenkung an Kaninchen in %: 22%
0,08 mg/kg p.o., after 5 hours
  Blutzuckersenkung an Kaninchen in %: 33%
